Results on seven compounds are retold here after PubChem BioAssay AID1259407 (Chemical Carcinogenesis Research Information System (CCRIS), 2018).

Active and inactive are the calls of the source. How the calls were made is not given here.

The data set relates to CCRIS mutagenicity, Ames/micronucleus/aberration tests. The experiment in a line: CCRIS mutagenicity studies.
Setting [1] is: Test System: AMES SALMONELLA TYPHIMURIUM, Strain/Indicator: TA98, Metabolic Activation: NONE, Method: PREINCUBATION
[2] abbreviates: Test System: AMES SALMONELLA TYPHIMURIUM, Strain/Indicator: TA100, Metabolic Activation: NONE, Method: PREINCUBATION
The mark [3] stands for this setting: Test System: AMES SALMONELLA TYPHIMURIUM, Strain/Indicator: TA1535, Metabolic Activation: NONE, Method: PREINCUBATION
The mark [4] stands for this setting: Test System: AMES SALMONELLA TYPHIMURIUM, Strain/Indicator: TA1537, Metabolic Activation: NONE, Method: PREINCUBATION
The mark [5] stands for this setting: Test System: AMES SALMONELLA TYPHIMURIUM, Strain/Indicator: TA100, Metabolic Activation: NONE, Method: STANDARD PLATE.
Setting [6] is: Test System: AMES SALMONELLA TYPHIMURIUM, Strain/Indicator: TA102, Metabolic Activation: NONE, Method: PREINCUBATION

With `CCCCCCCCCCCCCCCCCCCC`, the mutagenic call runs as follows: (Test System: AMES SALMONELLA TYPHIMURIUM, Strain/Indicator: TA97, Metabolic Activation: HAMSTER, LIVER, S-9, AROCLOR 1254 (10 OR 30%), Method: PREINCUBATION) “inactive; negative”; (Test System: AMES SALMONELLA TYPHIMURIUM, Strain/Indicator: TA97, Metabolic Activation: NONE, Method: PREINCUBATION) “inactive; negative”; (Test System: AMES SALMONELLA TYPHIMURIUM, Strain/Indicator: TA97, Metabolic Activation: RAT, LIVER, S-9, AROCLOR 1254 (10 OR 30%), Method: PREINCUBATION) “inactive; negative”; (Test System: AMES SALMONELLA TYPHIMURIUM, Strain/Indicator: TA98, Metabolic Activation: HAMSTER, LIVER, S-9, AROCLOR 1254 (10 OR 30%), Method: PREINCUBATION) “inactive; negative”; under setting [1], “inactive; negative”; (Test System: AMES SALMONELLA TYPHIMURIUM, Strain/Indicator: TA98, Metabolic Activation: RAT, LIVER, S-9, AROCLOR 1254 (10 OR 30%), Method: PREINCUBATION) “inactive; negative”. In addition, the mutagenic call reads like this: (Test System: AMES SALMONELLA TYPHIMURIUM, Strain/Indicator: TA100, Metabolic Activation: HAMSTER, LIVER, S-9, AROCLOR 1254 (10 OR 30%), Method: PREINCUBATION) “inactive; negative”; under setting [2], “inactive; negative”; (Test System: AMES SALMONELLA TYPHIMURIUM, Strain/Indicator: TA100, Metabolic Activation: RAT, LIVER, S-9, AROCLOR 1254 (10 OR 30%), Method: PREINCUBATION) “inactive; negative”; (Test System: AMES SALMONELLA TYPHIMURIUM, Strain/Indicator: TA1535, Metabolic Activation: HAMSTER, LIVER, S-9, AROCLOR 1254 (10 OR 30%), Method: PREINCUBATION) “inactive; negative”; under setting [3], “inactive; negative”; (Test System: AMES SALMONELLA TYPHIMURIUM, Strain/Indicator: TA1535, Metabolic Activation: RAT, LIVER, S-9, AROCLOR 1254 (10 OR 30%), Method: PREINCUBATION) “inactive; negative”. In addition, the mutagenic call (Test System: AMES SALMONELLA TYPHIMURIUM, Strain/Indicator: TA1537, Metabolic Activation: HAMSTER, LIVER, S-9, AROCLOR 1254 (30%), Method: PREINCUBATION) was “inactive; negative”; the mutagenic call under setting [4] was “inactive; negative”; the mutagenic call (Test System: AMES SALMONELLA TYPHIMURIUM, Strain/Indicator: TA1537, Metabolic Activation: RAT, LIVER, S-9, AROCLOR 1254 (30%), Method: PREINCUBATION) was “inactive; negative”.
In the case of `O=C(Nc1ccccc1)Nc1snc2ccccc12`, the mutagenic call was “inactive; negative” under setting [5]; “inactive; negative” (Test System: AMES SALMONELLA TYPHIMURIUM, Strain/Indicator: TA100, Metabolic Activation: S-9, Method: STANDARD PLATE); “inactive; negative” (Test System: AMES SALMONELLA TYPHIMURIUM, Strain/Indicator: TA1537, Metabolic Activation: NONE, Method: STANDARD PLATE); “inactive; negative” (Test System: AMES SALMONELLA TYPHIMURIUM, Strain/Indicator: TA1537, Metabolic Activation: S-9, Method: STANDARD PLATE).
As to `C[C@H]1SC[C@@H](C(=O)N[C@@H](Cc2cnc[nH]2)C(=O)N2CCC[C@H]2C(N)=O)NC1=O`, the mutagenic call is “inactive; negative” under setting [1]; “inactive; negative” (Test System: AMES SALMONELLA TYPHIMURIUM, Strain/Indicator: TA98, Metabolic Activation: RAT, LIVER, S-9, AROCLOR 1254, Method: PREINCUBATION); “inactive; negative” under setting [2]; “inactive; negative” (Test System: AMES SALMONELLA TYPHIMURIUM, Strain/Indicator: TA100, Metabolic Activation: RAT, LIVER, S-9, AROCLOR 1254, Method: PREINCUBATION); “inactive; negative” under setting [3]; “inactive; negative” (Test System: AMES SALMONELLA TYPHIMURIUM, Strain/Indicator: TA1535, Metabolic Activation: RAT, LIVER, S-9, AROCLOR 1254, Method: PREINCUBATION). Besides, the mutagenic call under setting [4] was “inactive; negative”; the mutagenic call (Test System: AMES SALMONELLA TYPHIMURIUM, Strain/Indicator: TA1537, Metabolic Activation: RAT, LIVER, S-9, AROCLOR 1254, Method: PREINCUBATION) is “inactive; negative”; the mutagenic call (Test System: E. COLI, Strain/Indicator: WP2 UVRA, Metabolic Activation: NONE, Method: PREINCUBATION) is “inactive; negative”; the mutagenic call (Test System: E. COLI, Strain/Indicator: WP2 UVRA, Metabolic Activation: RAT, LIVER, S-9, AROCLOR 1254, Method: PREINCUBATION) is “inactive; negative”.
`COc1ccc(N(CCCl)CCCl)c2cc([N+](=O)[O-])oc12`: the mutagenic call is “inactive; negative” (Test System: AMES SALMONELLA TYPHIMURIUM, Strain/Indicator: TA100(NR), Metabolic Activation: NONE, Method: STANDARD PLATE); “active; positive” (Test System: AMES SALMONELLA TYPHIMURIUM, Strain/Indicator: TA100(NR), Metabolic Activation: RAT, LIVER, S-9, AROCLOR 1254, Method: STANDARD PLATE); “active; positive” under setting [5]; “active; positive” (Test System: AMES SALMONELLA TYPHIMURIUM, Strain/Indicator: TA100, Metabolic Activation: RAT, LIVER, S-9, AROCLOR 1254, Method: STANDARD PLATE).
With `c1ccc([Se][Se]c2ccccc2)cc1`, the mutagenic call is “active; positive” (Test System: AMES SALMONELLA TYPHIMURIUM, Strain/Indicator: TA97A, Metabolic Activation: NONE, Method: PREINCUBATION) and “inactive; negative” under setting [6].
With `O=[N+]([O-])c1ccc2ccc3ccccc3c2c1`, the mutagenic call is, setting by setting: (Test System: AMES SALMONELLA TYPHIMURIUM, Strain/Indicator: TA98(1,8-DNP6), Metabolic Activation: NONE, Method: STANDARD PLATE) “active; positive”; (Test System: AMES SALMONELLA TYPHIMURIUM, Strain/Indicator: TA98(NR), Metabolic Activation: NONE, Method: STANDARD PLATE) “active; positive”; (Test System: AMES SALMONELLA TYPHIMURIUM, Strain/Indicator: TA98, Metabolic Activation: NONE, Method: STANDARD PLATE) “active; positive”; under setting [5], “active; positive”; (Test System: AMES SALMONELLA TYPHIMURIUM, Strain/Indicator: TA7001, Metabolic Activation: NONE, Method: PREINCUBATION) “active; positive”; (Test System: AMES SALMONELLA TYPHIMURIUM, Strain/Indicator: TA7002, Metabolic Activation: NONE, Method: PREINCUBATION) “active; positive”. For the same compound, the mutagenic call by setting is: (Test System: AMES SALMONELLA TYPHIMURIUM, Strain/Indicator: TA7003, Metabolic Activation: NONE, Method: PREINCUBATION) “active; positive”; (Test System: AMES SALMONELLA TYPHIMURIUM, Strain/Indicator: TA7004, Metabolic Activation: NONE, Method: PREINCUBATION) “active; positive”; (Test System: AMES SALMONELLA TYPHIMURIUM, Strain/Indicator: TA7005, Metabolic Activation: NONE, Method: PREINCUBATION) “active; positive”; (Test System: AMES SALMONELLA TYPHIMURIUM, Strain/Indicator: TA7006, Metabolic Activation: NONE, Method: PREINCUBATION) “active; positive”; (Test System: AMES SALMONELLA TYPHIMURIUM, Strain/Indicator: YG1021, Metabolic Activation: NONE, Method: STANDARD PLATE) “active; positive”; (Test System: AMES SALMONELLA TYPHIMURIUM, Strain/Indicator: YG1024, Metabolic Activation: NONE, Method: STANDARD PLATE) “active; positive”. The mutagenic call (Test System: AMES SALMONELLA TYPHIMURIUM, Strain/Indicator: YG1026, Metabolic Activation: NONE, Method: STANDARD PLATE) was “active; positive” and the mutagenic call (Test System: AMES SALMONELLA TYPHIMURIUM, Strain/Indicator: YG1029, Metabolic Activation: NONE, Method: STANDARD PLATE) is “active; positive”.
`N[C@@H](CCC(=O)N[C@@H](CSN=O)C(=O)NCC(=O)O)C(=O)O`: the mutagenic call was “active; positive” under setting [2]; “active; positive” (Test System: AMES SALMONELLA TYPHIMURIUM, Strain/Indicator: TA100, Metabolic Activation: RAT, LIVER, S-9, AROCLOR, Method: PREINCUBATION); “active; positive” under setting [6].
